{
  "source": "paper PMC9966435",
  "about": "“Synthesis and Biological Evaluation of 3-Amidoquinuclidine Quaternary Ammonium Compounds as New Soft Antibacterial Agents” (Pharmaceuticals, 2023)",
  "format_in_all_cases": "cell-based",
  "key": {"[1]": {"test_system": "Salmonella enterica food isolate", "experiment": "microbe, parasite or virus in culture", "details": "MHB, read-out: Minimum Inhibitory Concentration (MIC) Salmonella enterica food isolate"}, "[2]": {"test_system": "Enterococcus faecalis ATCC29212", "experiment": "Broth microdilution MIC in Mueller Hinton broth"}, "[3]": {"test_system": "Staphylococcus aureus ATCC25923", "experiment": "Broth microdilution MIC in Mueller Hinton broth"}, "[4]": {"test_system": "Staphylococcus aureus ATCC 33591", "details": "MIC in MHB vs MIC with 10 µM CCCP, S. aureus ATCC 33591", "description": "Bacterial susceptibility toward (±)3-amidoquinuclidine quaternary ammonium compounds was evaluated in the presence of an ATP synthesis inhibitor carbonyl cyanide 3-chlorophenylhydrazone (CCCP) (Sigma Aldrich). The minimum inhibitory concentration (MIC) of CCCP against Staphylococcus aureus ATCC 33591 (MRSA) was established before the experiment. The overnight culture of Staphylococcus aureus ATCC 33591 was diluted in tempered Mueller Hinton broth (MHB) and cultivated in the orbital shaker at 37 °C and 220 rpm. When the culture reached the preexponential phase of growth (OD600 = 0.3–0.5), it was diluted to a final concentration of 5 × 10^5 CFU/mL in MHB containing 10 µM CCCP. A total of 50 µL of prepared cell suspension was pipetted into a 96-well plate containing twofold serial dilutions of tested compounds in MHB with CCCP at a final concentration of 10 µM. Plates were incubated overnight, and the MIC reduction of tested compounds in the presence of 10 µM CCCP was recorded the following day."}, "[5]": {"test_system": "Escherichia coli ATTC25922", "experiment": "Broth microdilution MIC in Mueller Hinton broth"}, "[6]": {"test_system": "Listeria monocytogenes ATCC7644", "experiment": "Broth microdilution MIC in Mueller Hinton broth"}, "[7]": {"test_system": "Bacillus cereus ATCC14579", "experiment": "Broth microdilution MIC in Mueller Hinton broth"}, "[8]": {"test_system": "Staphylococcus aureus Clinical/MRSA", "experiment": "Broth microdilution MIC in Mueller Hinton broth", "details": "for MIC: Staphylococcus aureus, MRSA, read-out: Minimum Inhibitory Concentration (MIC) Staphylococcus aureus Clinical/MRSA"}, "[9]": {"test_system": "Staphylococcus aureus ATCC33591", "experiment": "Broth microdilution MIC in Mueller Hinton broth"}, "[10]": {"test_system": "Pseudomonas aeruginosa ATTC27853", "experiment": "Broth microdilution MIC in Mueller Hinton broth"}, "[11]": {"test_system": "Staphylococcus aureus ATCC 25923", "experiment": "MIC in Dulbecco's Modified Eagle Medium (DMEM)", "details": "ATCC25923, read-out: MIC DMEM", "method": "The overnight culture of Staphylococcus aureus ATCC 25923 was diluted in fresh Mueller Hinton broth (MHB) and placed in an orbital shaker incubator (Gallenkamp, Cambridge, UK) at 37 °C and 220 rpm. Once the culture reached the exponential growth phase (OD600 = 0.3–0.5), cells were centrifuged (Heraeus, Biofuge primo R, Hanau, Germany) at room temperature at a speed of 4000× g. The cell pellet was resuspended in tempered Dulbecco’s Modified Eagle Medium (DMEM) to a final concentration of 5 × 10^5 CFU/mL. Then, 50 µL of as-prepared cells were added to a 96-well plate containing twofold serial dilutions of tested compounds in DMEM medium in the range of concentrations from 125 µM to 0.12 µM. The minimum inhibitory concentration (MIC) was visually assessed the next day. The MIC was determined as the lowest concentration of the substance at which no apparent bacterial growth was seen."}, "[12]": {"test_system": "Staphylococcus aureus ATCC 25923", "experiment": "Time-resolved growth analysis", "method": "The growth kinetic experiments were performed to further investigate the efficacy of the selected 3-amidoquinnuclidine candidates. The candidates from series 1 (QC14-Me, QC14-Ally, QC16-Me, and QC16-Ally) and series 3 (QBn-C12, QBn-C14, and QBn-C16) were incubated at MIC and ½ MIC for 350 min with an appropriate number of CFU of Staphylococcus aureus ATCC 25923 at 37 °C with shaking. Time-resolved growth analysis was performed along with the control, in which bacterial growth was monitored without the presence of the antibacterial agent.\nTime-resolved growth analysis was performed in the microtiter plate reader (Bio-Tek EL808, Winooski, VT, USA) by incubating the selected antibacterial agent with Staphylococcus aureus ATCC 25923. The exponentially grown culture (OD600 = 0.3–0.5) of S. aureus ATCC 25923 was diluted to a final concentration of 5 × 10^4 CFU/mL. Then, 50 µL of such prepared cell culture was added to the 96-well plates containing the MIC or ½ MIC of the compound to be tested. The plates were incubated at 37 °C for 350 min in the microplate reader with shaking. OD600 was recorded at 10 min intervals. The results obtained represent the mean of two independent experiments performed in triplicate."}, "[13]": {"test_system": "Staphylococcus aureus ATCC 25923", "experiment": "MIC in cation-adjusted Mueller Hinton broth (CA-MHB)", "details": "ATCC25923, read-out: MIC CA-MHB", "method": "A representative bacterial strain, Staphylococcus aureus ATCC 25923, was grown overnight in Mueller Hinton broth (MHB). The following day, the culture was diluted in tempered MHB and allowed to grow at 37 °C with constant shaking of 220 rpm. Once the bacterial culture reached the exponential growth phase (OD600 = 0.3–0.5), it was diluted in the cation-adjusted Mueller Hinton broth (CA-MHB) containing MgCl2 (10 mM) to the final cell count of 5 × 10^5 CFU/mL. The previously prepared 96-well plate contained twofold serial dilutions of the compounds to be tested, dissolved in CA-MHB, in the concentrations range of 125 µM to 0.12 µM. Then, 50 µL of the bacterial cells diluted in CA-MHB was pipetted in each well of the plate and incubated overnight at 37 °C with constant shaking at 220 rpm. The next day, the minimum inhibitory concentration (MIC) was determined as the lowest concentration of the compound that prevented supposed bacterial growth in the wells. Visually determined results of antibacterial activity were confirmed by the addition of 20 µL 2-(4-iodophenyl)-3-(4-nitrophenyl)-5-phenyltetrazolium chloride (INT) reagent (6 mg/mL). The MIC value of a drug in CA-MHB containing NaCl (85 mM) was determined using the same experimental technique."}, "[14]": {"test_system": "Staphylococcus aureus ATCC 25923 biofilm", "experiment": "Biofilm inhibition assay (crystal violet)", "details": "ATCC25923, 12.5 μg mL−1, 48 h", "method": "Therefore, we investigated the antibiofilm activity of the new 3-amidoquinuclidine QACs against the biofilm-forming pathogen S. aureus ATCC 25923, which causes opportunistic infections of various tissues in humans. […] Antibiofilm activity was evaluated at four different concentrations (12.5, 25, 50, and 100 μ g mL^−1), and as shown on the crystal violet heat map (CV) (Figure 3A), all compounds have the potential to inhibit biofilm formation, albeit at different concentrations.\nMinimum biofilm inhibitory concentration (MBIC) was determined against Staphylococcus aureus ATCC 25923. Compounds were dissolved in MHB and serially diluted in 96-well plates with a final mass concentration ranging from 100 to 12.5 µg/mL. The exponentially grown culture (OD600 = 0.3–0.5) of S. aureus ATCC 25923 was diluted to a final concentration of 5 × 10^6 CFU/mL. Then, 50 µL of such prepared cell culture was added to the 96-well plates containing twofold dilutions of the compound to be tested. The plates were incubated for 48 h. After incubation, the broth over the biofilm was aspirated, and the plate with the biofilm was dried at 60 °C. […] Absorbance was measured at 595 nm in an optical reader. The percentage of biofilm formed was calculated by dividing the absorbance of the well containing the tested substance by the absorbance of the untreated bacterial cells and multiplying by 100."}, "[15]": {"details": "MHB, read-out: Minimum Inhibitory Concentration (MIC) Staphylococcus aureus ATCC25923"}, "[16]": {"details": "Enterococcus faecalis, ATCC29212, read-out: Minimum Inhibitory Concentration (MIC) Enterococcus faecalis ATCC29212"}, "[17]": {"details": "Staphylococcus aureus, ATCC25923, read-out: Minimum Inhibitory Concentration (MIC) Staphylococcus aureus ATCC25923"}, "[18]": {"details": "Escherichia coli, ATTC25922, read-out: Minimum Inhibitory Concentration (MIC) Escherichia coli ATTC25922"}, "[19]": {"details": "Listeria monocytogenes, ATCC7644, read-out: Minimum Inhibitory Concentration (MIC) Listeria monocytogenes ATCC7644"}, "[20]": {"details": "Bacillus cereus, ATCC14579, read-out: Minimum Inhibitory Concentration (MIC) Bacillus cereus ATCC14579"}, "[21]": {"details": "Staphylococcus aureus, ATCC33591, read-out: Minimum Inhibitory Concentration (MIC) Staphylococcus aureus ATCC33591"}, "[22]": {"details": "Pseudomonas aeruginosa, ATTC27853, read-out: Minimum Inhibitory Concentration (MIC) Pseudomonas aeruginosa ATTC27853"}},
  "note": "Where two headings read alike, the source gives them in different places.",
  "data": [
    {"smiles": "CCCCCCCCCCCC[N+](C)(C)Cc1ccccc1.[Br-]", "note": "[BAB, benzyldimethyldodecylammonium bromide, reference compound]", "values": [
      {"measurement": "MIC", "setting": "[1]", "result": 50, "unit": "µM"},
      {"measurement": "MIC", "setting": "[2]; MHB, read-out: Minimum Inhibitory Concentration (MIC) Enterococcus faecalis ATCC29212", "result": 15, "unit": "µM"},
      {"measurement": "MIC", "setting": "[3]; [15]", "result": 10, "unit": "µM"},
      {"measurement": "Fold reduction in MIC", "setting": "[4]", "result": 32},
      {"measurement": "MIC", "setting": "[5]; MHB, read-out: Minimum Inhibitory Concentration (MIC) Escherichia coli ATTC25922", "result": 63, "unit": "µM"},
      {"measurement": "MIC", "setting": "[6]; MHB, read-out: Minimum Inhibitory Concentration (MIC) Listeria monocytogenes ATCC7644", "result": 10, "unit": "µM"},
      {"measurement": "MIC", "setting": "[7]; MHB, read-out: Minimum Inhibitory Concentration (MIC) Bacillus cereus ATCC14579", "result": 13, "unit": "µM"},
      {"measurement": "Minimum Inhibitory Concentration (MIC) Staphylococcus aureus Clinical/MRSA", "setting": "[8]; MHB", "result": 25, "unit": "µM"},
      {"measurement": "MIC", "setting": "[9]; MHB, read-out: Minimum Inhibitory Concentration (MIC) Staphylococcus aureus ATCC33591", "result": 25, "unit": "µM"},
      {"measurement": "MIC", "setting": "[10]; MHB, read-out: Minimum Inhibitory Concentration (MIC) Pseudomonas aeruginosa ATTC27853", "result": ">125", "unit": "µM"}
    ]},
    {"smiles": "C=CC[N+]12CCC(CC1)C(NC(=O)CCCCCCCCCCCCC)C2", "note": "(stereo not shown) [QC14-Ally]", "values": [
      {"measurement": "MIC", "setting": "[1]; Salmonella enterica", "result": "> 125", "unit": "µM"},
      {"measurement": "MIC", "setting": "[2]; [16]", "result": 15, "unit": "µM"},
      {"measurement": "MIC", "setting": "[3]; [15]", "result": 20, "unit": "µM"},
      {"measurement": "MIC", "setting": "[3]; [17]", "result": 20, "unit": "µM"},
      {"measurement": "MIC", "setting": "[5]; [18]", "result": 50, "unit": "µM"},
      {"measurement": "MIC", "setting": "[6]; [19]", "result": 8, "unit": "µM"},
      {"measurement": "MIC", "setting": "[7]; [20]", "result": 25, "unit": "µM"},
      {"measurement": "MIC", "setting": "[11]", "result": 6, "unit": "µM"},
      {"measurement": "MIC", "setting": "[8]", "result": 25, "unit": "µM"},
      {"measurement": "MIC", "setting": "[9]; [21]", "result": 50, "unit": "µM"},
      {"measurement": "inhibition of bacterial growth at ½ MIC", "setting": "[12]", "result": "unable to inhibit bacterial growth"},
      {"measurement": "MIC", "setting": "[13]", "result": 20, "unit": "µM"},
      {"measurement": "inhibition at 12.5 µg/mL", "setting": "[14]", "result": "~100", "unit": "%"},
      {"measurement": "MIC", "setting": "[10]; [22]", "result": "> 125", "unit": "µM"}
    ]},
    {"smiles": "C=CC[N+]12CCC(CC1)C(NC(=O)CCCCCCCCCCCCCCC)C2", "note": "(stereo not shown) [QC16-Ally]", "values": [
      {"measurement": "MIC", "setting": "[1]; Salmonella enterica", "result": "> 125", "unit": "µM"},
      {"measurement": "MIC", "setting": "[2]; [16]", "result": "> 100", "unit": "µM"},
      {"measurement": "MIC", "setting": "[3]; [15]", "result": 15, "unit": "µM"},
      {"measurement": "MIC", "setting": "[3]; [17]", "result": 15, "unit": "µM"},
      {"measurement": "MIC", "setting": "[5]; [18]", "result": "> 100", "unit": "µM"},
      {"measurement": "MIC", "setting": "[6]; [19]", "result": 16, "unit": "µM"},
      {"measurement": "MIC", "setting": "[7]; [20]", "result": "> 100", "unit": "µM"},
      {"measurement": "MIC", "setting": "[11]", "result": 3, "unit": "µM"},
      {"measurement": "MIC", "setting": "[8]", "result": 31, "unit": "µM"},
      {"measurement": "MIC", "setting": "[9]; [21]", "result": 25, "unit": "µM"},
      {"measurement": "MIC", "setting": "[13]", "result": 15, "unit": "µM"},
      {"measurement": "inhibition at 12.5 µg/mL", "setting": "[14]", "result": "~100", "unit": "%"},
      {"measurement": "MIC", "setting": "[10]; [22]", "result": "> 125", "unit": "µM"}
    ]}
  ]
}
